# Test results as given in publication PMC3267170, “Pharmacological Modulation of Diacylglycerol-Sensitive TRPC3/6/7 Channels” (Current Pharmaceutical Biotechnology, 2011).
# Like-named read-outs stand apart in the source and are kept apart here.
# Legend:
# TRPC6 [1] = molecular target: T1, TRPC6 (Homo sapiens, UniProt Q9Y210); experiment: FLIPR calcium entry in TRPC6-expressing cells stimulated by hyperforin; format: cell-based; conditions: read-out: IC50, hyperforin-induced TRPC6-mediated calcium entry (Fig. 3)
# T1 construct: expressed in transfected cells
# T1 sequence (Q9Y210 1-931): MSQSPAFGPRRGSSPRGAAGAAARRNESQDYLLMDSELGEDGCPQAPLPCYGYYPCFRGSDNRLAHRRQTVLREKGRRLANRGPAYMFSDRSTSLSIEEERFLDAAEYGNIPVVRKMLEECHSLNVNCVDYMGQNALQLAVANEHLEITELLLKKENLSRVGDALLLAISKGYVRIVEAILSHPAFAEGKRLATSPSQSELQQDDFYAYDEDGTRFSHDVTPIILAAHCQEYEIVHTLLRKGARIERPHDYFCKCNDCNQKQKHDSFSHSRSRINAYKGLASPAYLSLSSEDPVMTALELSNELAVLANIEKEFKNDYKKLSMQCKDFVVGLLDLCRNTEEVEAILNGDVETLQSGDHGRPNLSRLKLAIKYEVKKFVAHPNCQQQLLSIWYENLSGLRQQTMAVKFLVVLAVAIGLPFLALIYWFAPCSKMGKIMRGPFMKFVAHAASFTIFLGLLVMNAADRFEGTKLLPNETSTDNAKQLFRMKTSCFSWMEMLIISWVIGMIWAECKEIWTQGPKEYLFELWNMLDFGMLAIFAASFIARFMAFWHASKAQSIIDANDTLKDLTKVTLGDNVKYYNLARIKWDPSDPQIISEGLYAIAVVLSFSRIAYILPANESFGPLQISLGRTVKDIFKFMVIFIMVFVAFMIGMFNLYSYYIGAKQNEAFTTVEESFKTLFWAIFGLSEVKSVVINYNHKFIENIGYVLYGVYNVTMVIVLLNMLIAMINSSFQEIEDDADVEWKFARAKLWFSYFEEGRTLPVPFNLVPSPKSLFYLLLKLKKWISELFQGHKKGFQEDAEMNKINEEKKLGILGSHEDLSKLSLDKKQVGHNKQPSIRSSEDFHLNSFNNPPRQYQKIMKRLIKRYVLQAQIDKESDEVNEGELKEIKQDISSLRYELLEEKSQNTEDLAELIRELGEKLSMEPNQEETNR
# Method: (§1) Using this approach, we tested several other structurally related compounds to get a first view on the structure-function relationships of TRPC6.
# A) The chemical structures of the tested compound is shown. […] Calcium entry was measured using FLIPR^Tetra and data analysed as described in Jörs et al.. The data were calculated from one experiment of at least three experiments performed in quadruplicates per concentration and TRP channel.
# (§2) Calcium entry was measured using FLIPR^Tetra and data analysed as described in Jörs et al.. The data were calculated from one experiment of at least three experiments performed in quadruplicates per concentration and TRP channel.
# [2] = molecular target: receptor-mediated calcium entry; design: method as in PMID 2173565; conditions: platelets, neutrophils and endothelial cells; read-out: IC50, block of ADP-induced calcium entry; cited from earlier work
# TRPC3 [3] = test system: TRPC3; design: method as in PMID 12700192; conditions: 100 µM; human myometrial cells; cited from earlier work
# TRPC6 [4] = molecular target: T1, TRPC6; design: method as in earlier work; conditions: 100 µM SKF-96365; ref 12 (Boulay et al.); cited from earlier work
# TRPC6 [5] = molecular target: T1, TRPC6; design: method as in PMID 9368034, PMID 10970899; conditions: read-out: concentration needed to block TRPC6; cited from earlier work
# TRPC3 [6] = test system: TRPC3; design: method as in PMID 9368034, PMID 10970899; conditions: read-out: half-maximal concentration necessary for TRPC3 inhibition; cited from earlier work
# TRPM3 = molecular target: T2, TRPM3 (Homo sapiens, UniProt Q9HCF6); experiment: FLIPR calcium entry in TRPM3-expressing cells stimulated by pregnenolone sulphate; format: cell-based; conditions: fluo-4-loaded cells, pregnenolone sulphate (35 µM), FLIPR Tetra; read-out: IC50 to block TRPM3
# T2 construct: expressed in transfected cells
# Method: as §1, §2
# Drosophila TRPγ = molecular target: T3, Drosophila TRPγ (Drosophila melanogaster, UniProt Q9VJJ7); experiment: FLIPR calcium entry in TRPγ-expressing cells stimulated by eicosatetraynoic acid; format: cell-based; conditions: fluo-4-loaded cells, eicosatetraynoic acid (20 µM), FLIPR Tetra; read-out: IC50 to block Drosophila TRPγ
# T3 construct: expressed in transfected cells
# T3 sequence (Q9VJJ7 1-1128): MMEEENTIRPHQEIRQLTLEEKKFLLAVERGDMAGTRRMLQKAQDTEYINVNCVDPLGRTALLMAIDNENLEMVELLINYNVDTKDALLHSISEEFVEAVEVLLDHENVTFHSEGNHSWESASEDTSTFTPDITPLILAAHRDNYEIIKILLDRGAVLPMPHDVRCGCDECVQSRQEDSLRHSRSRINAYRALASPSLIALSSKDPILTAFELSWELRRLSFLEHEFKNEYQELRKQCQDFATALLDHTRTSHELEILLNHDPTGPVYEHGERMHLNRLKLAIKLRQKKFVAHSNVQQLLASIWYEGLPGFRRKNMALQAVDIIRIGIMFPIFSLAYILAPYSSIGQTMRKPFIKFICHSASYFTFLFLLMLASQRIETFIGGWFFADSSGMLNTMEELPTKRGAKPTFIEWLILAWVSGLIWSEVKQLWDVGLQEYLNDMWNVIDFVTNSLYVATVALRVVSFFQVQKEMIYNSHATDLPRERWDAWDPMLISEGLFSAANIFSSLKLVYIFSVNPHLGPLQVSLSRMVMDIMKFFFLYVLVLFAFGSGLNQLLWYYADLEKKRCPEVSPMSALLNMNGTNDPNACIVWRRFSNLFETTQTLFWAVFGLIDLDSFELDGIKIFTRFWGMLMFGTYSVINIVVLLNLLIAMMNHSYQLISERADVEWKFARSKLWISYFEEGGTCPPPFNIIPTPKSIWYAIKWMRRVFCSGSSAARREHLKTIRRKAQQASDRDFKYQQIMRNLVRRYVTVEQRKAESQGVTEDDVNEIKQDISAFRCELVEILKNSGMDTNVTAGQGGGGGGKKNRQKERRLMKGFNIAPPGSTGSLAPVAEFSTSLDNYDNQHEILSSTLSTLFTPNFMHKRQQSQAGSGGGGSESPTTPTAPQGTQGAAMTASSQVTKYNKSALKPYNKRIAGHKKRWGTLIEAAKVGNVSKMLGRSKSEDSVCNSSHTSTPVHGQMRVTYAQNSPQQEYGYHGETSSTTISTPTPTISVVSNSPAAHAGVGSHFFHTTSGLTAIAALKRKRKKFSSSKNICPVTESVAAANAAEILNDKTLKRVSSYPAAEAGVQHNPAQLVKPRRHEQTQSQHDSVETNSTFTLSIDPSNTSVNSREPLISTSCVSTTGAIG
# Method: as §1, §2
# TRPV4 = molecular target: T4, TRPV4 (Homo sapiens, UniProt Q9HBA0); experiment: FLIPR calcium entry in TRPV4-expressing cells stimulated by 4α-phorbol-didecanoate; format: cell-based; conditions: fluo-4-loaded cells, 4α-phorbol-didecanoate (5 µM), FLIPR Tetra; read-out: IC50 to block TRPV4
# T4 construct: expressed in transfected cells
# Method: as §1, §2
# T2 sequence (Q9HCF6 whole entry, species assumed): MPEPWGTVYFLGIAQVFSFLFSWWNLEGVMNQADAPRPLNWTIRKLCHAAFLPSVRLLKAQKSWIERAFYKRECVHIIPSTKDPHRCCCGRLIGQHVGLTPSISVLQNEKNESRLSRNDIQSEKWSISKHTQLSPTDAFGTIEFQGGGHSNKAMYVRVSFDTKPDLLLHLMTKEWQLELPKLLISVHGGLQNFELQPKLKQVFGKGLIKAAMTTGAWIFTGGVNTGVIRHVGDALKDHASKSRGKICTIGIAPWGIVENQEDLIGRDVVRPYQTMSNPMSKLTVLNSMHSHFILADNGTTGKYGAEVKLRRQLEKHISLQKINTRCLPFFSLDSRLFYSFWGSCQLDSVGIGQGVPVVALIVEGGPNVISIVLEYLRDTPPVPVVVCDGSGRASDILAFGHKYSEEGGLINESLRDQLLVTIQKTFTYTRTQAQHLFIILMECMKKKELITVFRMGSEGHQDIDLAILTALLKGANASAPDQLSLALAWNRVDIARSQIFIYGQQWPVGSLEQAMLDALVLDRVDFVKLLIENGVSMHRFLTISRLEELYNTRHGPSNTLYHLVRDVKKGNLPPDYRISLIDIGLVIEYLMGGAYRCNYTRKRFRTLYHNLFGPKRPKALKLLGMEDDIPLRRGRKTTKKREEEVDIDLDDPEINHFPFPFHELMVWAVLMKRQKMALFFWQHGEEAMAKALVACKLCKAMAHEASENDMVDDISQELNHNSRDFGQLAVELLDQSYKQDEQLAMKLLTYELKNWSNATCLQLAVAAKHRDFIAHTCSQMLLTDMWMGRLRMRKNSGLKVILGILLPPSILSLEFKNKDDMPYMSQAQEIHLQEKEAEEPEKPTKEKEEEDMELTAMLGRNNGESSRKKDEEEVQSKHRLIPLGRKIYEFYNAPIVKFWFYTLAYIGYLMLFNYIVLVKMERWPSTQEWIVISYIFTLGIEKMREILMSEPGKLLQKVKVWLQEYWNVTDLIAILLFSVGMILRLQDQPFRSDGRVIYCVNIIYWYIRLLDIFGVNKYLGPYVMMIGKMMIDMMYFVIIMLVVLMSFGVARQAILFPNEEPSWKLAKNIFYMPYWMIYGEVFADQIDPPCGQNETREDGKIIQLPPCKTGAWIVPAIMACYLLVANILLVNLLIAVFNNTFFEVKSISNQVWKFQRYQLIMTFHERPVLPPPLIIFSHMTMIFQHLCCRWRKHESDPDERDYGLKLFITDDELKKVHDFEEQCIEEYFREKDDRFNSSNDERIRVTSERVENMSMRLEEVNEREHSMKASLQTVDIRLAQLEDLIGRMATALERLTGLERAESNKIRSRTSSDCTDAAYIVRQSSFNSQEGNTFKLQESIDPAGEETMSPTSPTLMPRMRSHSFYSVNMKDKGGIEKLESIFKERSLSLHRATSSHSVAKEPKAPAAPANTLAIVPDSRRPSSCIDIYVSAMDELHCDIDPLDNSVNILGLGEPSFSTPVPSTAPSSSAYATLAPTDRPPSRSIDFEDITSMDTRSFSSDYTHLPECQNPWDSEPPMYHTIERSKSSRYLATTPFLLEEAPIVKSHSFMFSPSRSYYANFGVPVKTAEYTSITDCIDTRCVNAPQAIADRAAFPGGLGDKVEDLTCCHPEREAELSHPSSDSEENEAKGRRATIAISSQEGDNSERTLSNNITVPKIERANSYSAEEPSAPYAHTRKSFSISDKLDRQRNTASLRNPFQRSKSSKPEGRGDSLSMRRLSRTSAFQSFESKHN
# T4 sequence (Q9HBA0 whole entry, species assumed): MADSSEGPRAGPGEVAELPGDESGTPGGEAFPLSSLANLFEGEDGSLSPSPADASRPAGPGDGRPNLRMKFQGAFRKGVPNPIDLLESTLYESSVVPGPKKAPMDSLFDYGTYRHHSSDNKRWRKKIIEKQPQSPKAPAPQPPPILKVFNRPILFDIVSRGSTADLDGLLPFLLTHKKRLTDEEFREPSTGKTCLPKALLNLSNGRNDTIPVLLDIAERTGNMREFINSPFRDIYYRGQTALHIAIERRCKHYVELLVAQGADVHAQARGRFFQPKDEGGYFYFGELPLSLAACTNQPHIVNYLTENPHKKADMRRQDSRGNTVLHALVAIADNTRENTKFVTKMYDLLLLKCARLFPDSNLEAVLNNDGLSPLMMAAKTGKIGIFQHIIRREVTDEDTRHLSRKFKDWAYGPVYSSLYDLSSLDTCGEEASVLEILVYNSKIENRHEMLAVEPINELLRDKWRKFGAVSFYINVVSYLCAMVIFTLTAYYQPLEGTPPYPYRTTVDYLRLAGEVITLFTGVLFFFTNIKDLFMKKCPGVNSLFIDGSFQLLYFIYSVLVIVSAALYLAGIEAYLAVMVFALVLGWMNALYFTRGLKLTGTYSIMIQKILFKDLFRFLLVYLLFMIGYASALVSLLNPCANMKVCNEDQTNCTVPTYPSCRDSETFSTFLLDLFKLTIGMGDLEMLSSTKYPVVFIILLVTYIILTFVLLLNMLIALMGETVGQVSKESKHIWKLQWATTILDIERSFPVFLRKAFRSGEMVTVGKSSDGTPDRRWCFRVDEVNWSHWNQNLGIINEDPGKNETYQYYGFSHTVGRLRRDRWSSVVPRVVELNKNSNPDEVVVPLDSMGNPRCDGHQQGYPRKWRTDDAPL
smiles,measurement,setting,value
NCCCCCCCCCCNS(=O)(=O)c1cccc2c(Cl)cccc12 [W-7 decyl],IC50,TRPC6 [1],29 µM
"O=S(=O)(c1cccc2c(Cl)cccc12)N1CCCNCC1 [ML-9, 1-(5-Chloronaphthalene-1-sulfonyl)-1H-hexahydro-1,4-diazepine]",IC50,TRPC6 [1],36 µM
"COc1ccc(CCCOC(Cn2ccnc2)c2ccc(OC)cc2)cc1.Cl (stereo not drawn) [SKF-96365, 1-{β[3-(4-methoxyphenyl)propoxy]-4-methoxyphenethyl}-1H-imidazole hydrochloride]",IC50,[2],~10 µM
same,block of endogenously expressed TRPC3,TRPC3 [3],effective in blocking
same,block of heterologously expressed TRPC6,TRPC6 [4],complete block
"NCCCCCCCCNS(=O)(=O)c1cccc2c(I)cccc12 [J-8, (N-8-Aminooctyl)-5-iodo-1-naphthalenesulfonamide]",IC50,TRPC6 [1],85 µM
"NCCCCCCNS(=O)(=O)c1ccc2c(Cl)cccc2c1 [W-7 isomer, N-(6-Aminohexyl)-5-chloro-2-naphthalenesulfonamide]",IC50,TRPC6 [1],35 µM
[Cl][La]([Cl])[Cl] [lanthanum chloride],IC50,TRPC6 [5],> 50 µM
same,IC50,TRPC3 [6],4 µM
"NCCCCCCNS(=O)(=O)c1cccc2c(Cl)cccc12 [W-7, N-(6-Aminohexyl)-5-chloro-1-naphthalenesulfonamide]",IC50,TRPM3,15 µM
same,IC50,Drosophila TRPγ,5 µM
same,IC50,TRPV4,65 µM
"NCCCCCCNS(=O)(=O)c1cccc2ccccc12 [W-5, N-(6-Aminohexyl)-1-naphthalenesulfonamide]",IC50,TRPC6 [1],20 µM
